From the NIST ThermoML archive (doi:10.1016/j.jct.2012.06.012)
Numbers after ± are expanded uncertainties.

Test: xn = mol fraction of the nth substance listed
Conditions: Liquid, Vibrating tube method

CCCCCCCCCC [decane] + CCO
Conditions | mass density [kg/m3]
342.86 K, 16000 kPa, x2 = 0.7526 | 727.54 ± 0.4
342.86 K, 16000 kPa, x2 = 0.9014 | 742.82 ± 0.38
342.86 K, 17000 kPa, x2 = 0.7526 | 728.5 ± 0.42
342.86 K, 17000 kPa, x2 = 0.9014 | 743.79 ± 0.4
342.86 K, 18000 kPa, x2 = 0.7526 | 729.43 ± 0.43
342.86 K, 18000 kPa, x2 = 0.9014 | 744.74 ± 0.41
342.86 K, 19000 kPa, x2 = 0.7526 | 730.35 ± 0.44
342.86 K, 19000 kPa, x2 = 0.9014 | 745.67 ± 0.42
342.86 K, 20000 kPa, x2 = 0.7526 | 731.26 ± 0.45
342.86 K, 20000 kPa, x2 = 0.9014 | 746.59 ± 0.43
342.93 K, 1000 kPa, x2 = 0.2507 | 693.16 ± 0.22
342.93 K, 2000 kPa, x2 = 0.2507 | 694.23 ± 0.24
342.93 K, 3000 kPa, x2 = 0.2507 | 695.28 ± 0.25
342.93 K, 4000 kPa, x2 = 0.2507 | 696.32 ± 0.27
342.93 K, 5000 kPa, x2 = 0.2507 | 697.34 ± 0.28
342.93 K, 6000 kPa, x2 = 0.2507 | 698.35 ± 0.3
342.93 K, 7000 kPa, x2 = 0.2507 | 699.37 ± 0.31
342.93 K, 8000 kPa, x2 = 0.2507 | 700.38 ± 0.32
342.93 K, 9000 kPa, x2 = 0.2507 | 701.37 ± 0.34
342.93 K, 10000 kPa, x2 = 0.2507 | 702.36 ± 0.35
342.93 K, 11000 kPa, x2 = 0.2507 | 703.34 ± 0.36
342.93 K, 12000 kPa, x2 = 0.2507 | 704.32 ± 0.38
342.93 K, 13000 kPa, x2 = 0.2507 | 705.28 ± 0.39
342.93 K, 14000 kPa, x2 = 0.2507 | 706.23 ± 0.41
342.93 K, 15000 kPa, x2 = 0.2507 | 707.16 ± 0.42
342.93 K, 16000 kPa, x2 = 0.2507 | 708.07 ± 0.43
342.93 K, 17000 kPa, x2 = 0.2507 | 708.97 ± 0.45
342.93 K, 18000 kPa, x2 = 0.2507 | 709.85 ± 0.46
342.93 K, 19000 kPa, x2 = 0.2507 | 710.72 ± 0.47
342.93 K, 20000 kPa, x2 = 0.2507 | 711.57 ± 0.48
352.68 K, 1000 kPa, x2 = 0.9014 | 717.22 ± 0.21
352.68 K, 2000 kPa, x2 = 0.9014 | 718.43 ± 0.22
352.68 K, 3000 kPa, x2 = 0.9014 | 719.64 ± 0.24
352.68 K, 4000 kPa, x2 = 0.9014 | 720.84 ± 0.25
352.68 K, 5000 kPa, x2 = 0.9014 | 722.04 ± 0.26
352.68 K, 6000 kPa, x2 = 0.9014 | 723.23 ± 0.27
352.68 K, 7000 kPa, x2 = 0.9014 | 724.41 ± 0.29
352.68 K, 8000 kPa, x2 = 0.9014 | 725.57 ± 0.3
352.68 K, 9000 kPa, x2 = 0.9014 | 726.72 ± 0.31
352.68 K, 10000 kPa, x2 = 0.9014 | 727.86 ± 0.32
352.68 K, 11000 kPa, x2 = 0.9014 | 728.99 ± 0.34
352.68 K, 12000 kPa, x2 = 0.9014 | 730.09 ± 0.35
352.68 K, 13000 kPa, x2 = 0.9014 | 731.17 ± 0.36
352.68 K, 14000 kPa, x2 = 0.9014 | 732.26 ± 0.37
352.68 K, 15000 kPa, x2 = 0.9014 | 733.32 ± 0.38
352.68 K, 16000 kPa, x2 = 0.9014 | 734.36 ± 0.4
352.68 K, 17000 kPa, x2 = 0.9014 | 735.39 ± 0.41
352.68 K, 18000 kPa, x2 = 0.9014 | 736.4 ± 0.42
352.68 K, 19000 kPa, x2 = 0.9014 | 737.39 ± 0.43
352.68 K, 20000 kPa, x2 = 0.9014 | 738.36 ± 0.44
352.69 K, 1000 kPa, x2 = 0.0937 | 683.22 ± 0.23
352.69 K, 1000 kPa, x2 = 0.4963 | 689.92 ± 0.23
352.69 K, 2000 kPa, x2 = 0.0937 | 684.34 ± 0.25
352.69 K, 2000 kPa, x2 = 0.4963 | 691.07 ± 0.24
352.69 K, 3000 kPa, x2 = 0.0937 | 685.44 ± 0.26
352.69 K, 3000 kPa, x2 = 0.4963 | 692.22 ± 0.25
352.69 K, 4000 kPa, x2 = 0.0937 | 686.53 ± 0.27
352.69 K, 4000 kPa, x2 = 0.4963 | 693.37 ± 0.27
352.69 K, 5000 kPa, x2 = 0.0937 | 687.61 ± 0.29
352.69 K, 5000 kPa, x2 = 0.4963 | 694.5 ± 0.28
352.69 K, 6000 kPa, x2 = 0.0937 | 688.68 ± 0.3
352.69 K, 6000 kPa, x2 = 0.4963 | 695.63 ± 0.3
352.69 K, 7000 kPa, x2 = 0.0937 | 689.74 ± 0.32
352.69 K, 7000 kPa, x2 = 0.4963 | 696.75 ± 0.31
352.69 K, 8000 kPa, x2 = 0.0937 | 690.8 ± 0.33
352.69 K, 8000 kPa, x2 = 0.4963 | 697.86 ± 0.32
352.69 K, 9000 kPa, x2 = 0.0937 | 691.83 ± 0.35
352.69 K, 9000 kPa, x2 = 0.4963 | 698.96 ± 0.34
352.69 K, 10000 kPa, x2 = 0.0937 | 692.86 ± 0.36
352.69 K, 10000 kPa, x2 = 0.4963 | 700.06 ± 0.35
352.69 K, 11000 kPa, x2 = 0.0937 | 693.89 ± 0.37
352.69 K, 11000 kPa, x2 = 0.4963 | 701.13 ± 0.37
352.69 K, 12000 kPa, x2 = 0.0937 | 694.89 ± 0.39
352.69 K, 12000 kPa, x2 = 0.4963 | 702.2 ± 0.38
352.69 K, 13000 kPa, x2 = 0.0937 | 695.89 ± 0.4
352.69 K, 13000 kPa, x2 = 0.4963 | 703.25 ± 0.39
352.69 K, 14000 kPa, x2 = 0.0937 | 696.87 ± 0.42
352.69 K, 14000 kPa, x2 = 0.4963 | 704.28 ± 0.41
352.69 K, 15000 kPa, x2 = 0.0937 | 697.83 ± 0.43
352.69 K, 15000 kPa, x2 = 0.4963 | 705.29 ± 0.42
352.69 K, 16000 kPa, x2 = 0.0937 | 698.77 ± 0.44
352.69 K, 16000 kPa, x2 = 0.4963 | 706.29 ± 0.43
352.69 K, 17000 kPa, x2 = 0.0937 | 699.71 ± 0.46
352.69 K, 17000 kPa, x2 = 0.4963 | 707.26 ± 0.45
352.69 K, 18000 kPa, x2 = 0.0937 | 700.63 ± 0.47
352.69 K, 18000 kPa, x2 = 0.4963 | 708.23 ± 0.46
352.69 K, 19000 kPa, x2 = 0.0937 | 701.52 ± 0.49
352.69 K, 19000 kPa, x2 = 0.4963 | 709.17 ± 0.47
352.69 K, 20000 kPa, x2 = 0.0937 | 702.39 ± 0.5
352.69 K, 20000 kPa, x2 = 0.4963 | 710.11 ± 0.49
